Results reported in patent US7638122B2, “Stat3 antagonists and their use as vaccines against cancer” (University of South Florida, priority 2003, dated 2009).
Square brackets hold non-standard residues; d marks the D form. Ends that are not written are not given here. pY = N[C@@H](Cc1ccc(OP(=O)(O)O)cc1)C(=O)O

Tested on: bone marrow progenitor cells
Experiment: DC differentiation/maturation from bone marrow progenitor cells in the presence of tumor supernatants
Format: cell-based, mouse
Details: supernatant from CT26 tumor cells (5%), 375 μM peptide, 6 days
Experimental: FIG. 7. Inhibition of Stat activity in dendritic cells alleviates the negative effect of tumor-secreted factors on DC differentiation. a, Stat activation in DCs treated for 1 hour with recombinant VEGF (100 ng/ml) or incubated for 15 min. with various supernatants as indicated. […] Bone marrow progenitor cells were cultured for 6 days in DC medium alone or in the presence of supernatant from CT26 tumor cells (5%) plus 375 μM of anti-Stat3 (PY*LKTK) (SEQ ID NO: 11); or control (PYLKTK) (SEQ ID NO: 12); peptide.
Preparation of bone marrow progenitor cells (BMPCs) and generation of bone marrow-derived mature DCs were carried out according to a previously described protocol (Lu et al., 2000, J. Exp. Med. 191: 541-550). Relatively mature DCs were obtained by incubating, BMPCs in medium containing GM-CSF and IL-4 for 6 days. […] Following 48 hours culture, suspension cells were collected and analyzed for IL-12 secretion by ELISA (R & D) and expression of DC-surface markers (CD86, CD40 and MHC Class II) by flow cytometry. All antibodies were purchased from PharMingen and surface expression was analyzed using a FACScan cytofluorometer (Becton Dickinson) as previously described, (Lu et al., 2000, supra). […] T-cell proliferation was measured by [^3H]-thymidine incorporation over 18 hours.

Substance: PY*LKTK (P[pY]LKTK)
- effect of tumor-derived factors on DC differentiation: relieve the negative effect of tumor-derived factors on DC differentiation
